Results published in patent EP0051819A2, “Tetra-substituted benzene derivatives, their preparation and pharmaceutical preparations containing them” (F. HOFFMANN-LA ROCHE & CO. Aktiengesellschaft, priority 1980, dated 1982).
Converted amounts (≈) assume the structure as drawn. Where two headings read alike, the source gives them in different places.

What was measured:
[1] = Cytotoxicity in HeLa cells, observed microscopically in the antiviral test; format: cell-based; conditions: human, hela cells
Experimental: (§1) Eine Suspension von HeLa-Zellen (6 x 10^4) wurde mit Rhinovirus HGP (3 x 10^3 Plaque-bildende Einheiten, PFU) gemischt und auf eine Mikrotestplatte gebracht, die die zu testenden Verbindungen in zunehmender Verdünnung enthielten. Die Zellen wurden dann in Eagle's Minimalnährlösung, die 2% Kalbsserum, 1% Tryptosephosphatbrühe, 100 ug/ml Streptomycin und 20 Einheiten/ml Penicillin G enthielt, kultiviert. Der virale zytopathogenische Effekt (C.P.E.) und die Cytotoxizität wurden mikroskopisch nach 2 Tagen Kultivierung bei 33°C beobachtet. Die antivirale Aktivität (IC50) der Testverbindungen ist diejenige Konzentration,.bei der C.P.E. um 50% gegenüber der Kontrollkultur gehemmt war. Die Cytotoxizität ist als Minimalkonzentration angegeben, bei der toxische Symptome beobachtet wurden.(cytotoxische Dosis).

Rhinovirus HGP = experiment: Antiviral activity: inhibition of viral cytopathogenic effect (C.P.E.) in HeLa cell culture; format: cell-based; conditions: for IC50: Enterovirus, HeLa, 48 h; for antivirale Aktivität: qualitative statement in the description, no virus named
Experimental: as §1

[2] = minimal concentration at which toxic symptoms were observed (cytotoxische Dosis), 2 days at 33°C, read-out: Cytotoxizität
[3] = concentration inhibiting C.P.E. by 50% versus control culture, HeLa cells, 2 days at 33°C, read-out: IC50

| SMILES | MCC at 48 h [1, 2] | IC50 (Rhinovirus HGP; [3]) | MCC at 48 h [1] | antivirale Aktivität (Rhinovirus HGP) | IC50 (Rhinovirus HGP) |
| --- | --- | --- | --- | --- | --- |
| CCOC(=O)Oc1cc(OC)cc(OC)c1C(=O)NCc1ccc(OC)cc1 | > 8 µg/mL | 0.1 µg/mL (≈ 0.257 µM) |  |  |  |
| CCOc1cc(OC)cc(O)c1C(=O)CCc1ccc(OC)cc1 [1-(2-Ethoxy-6-hydroxy-4--methoxyphenyl)-3-(4-methoxy-phenyl)-1-propanon] | 0.9 µg/mL | 0.01 to 0.03 µg/mL (≈ 0.0303 to 0.0908 µM) |  |  |  |
| COc1cc(O)c(C(=O)CCc2ccc(C)cc2)c(OC)c1 [1-(2-Hydroxy-4,6-dimethoxy-phenyl)-3-(4-methylphenyl)-1--propanon] | > 8 µg/mL | 0.01 to 0.03 µg/mL (≈ 0.0333 to 0.0999 µM) |  |  |  |
| COc1cc(O)c(C(=O)CCc2ccc3c(c2)OCO3)c(OC)c1 [1-(2-Hydroxy-4,6-dimethoxy-phenyl)-3-[3,4-(methylendioxy)-phenyl]-1-propanon] | > 8 µg/mL | 0.03 to 0.1 µg/mL (≈ 0.0908 to 0.303 µM) |  |  |  |
| COc1cc(O)c(C(=O)CCc2ccc(SC)cc2)c(OC)c1 [1-(2-Hydroxy-4,6-dimethoxy-phenyl)-3-[4-(methylthio)-phenyl]-1-propanon] | 8 µg/mL | 0.01 to 0.03 µg/mL (≈ 0.0301 to 0.0902 µM) |  |  |  |
| COc1ccc(C(=O)CC(=O)c2c(O)cc(OC)cc2OC)cc1 [1-(2-Hydroxy-4,6-dimethoxyphenyl)-3-(4-methoxyphenyl)-1,3-propandion] | 8 µg/mL | 0.01 to 0.03 µg/mL (≈ 0.0303 to 0.0908 µM) |  |  |  |
| COc1cc(O)c(C(=O)CCc2ccc(C)o2)c(OC)c1 [1-(2-Hydroxy-4,6-dimethoxyphenyl)-3-(5-methyl-2-furyl)-l-propanon] | > 8 µg/mL | 0.9 µg/mL (≈ 3.1 µM) |  |  |  |
| COc1cc(O)c(C(=O)CCC2CCC(C)O2)c(OC)c1 (stereo not drawn) [1-(2-Hydroxy-4,6-dimethoxyphenyl)-3-(tetrahydro-5-methyl-2-furyl)-1-propanon] | > 8 µg/mL | 0.9 µg/mL (≈ 3.06 µM) |  |  |  |
| COc1ccc(CCC(=O)c2c(O)cc(OC(C)C)cc2OC)cc1 [1-(2-Hydroxy-4-isopropoxy-6-methoxyphenyl)-3-(4-methoxyphenyl)-1-propanon] | 8 µg/mL | 0.03 to 0.1 µg/mL (≈ 0.0871 to 0.29 µM) |  |  |  |
| CCCOc1cc(O)c(C(=O)CCc2ccc(OC)cc2)c(OC)c1 [1-(2-Hydroxy-6-methoxy-4-propoxyphenyl)-3-(4-methoxyphenyl)-1-propanon] | 2.7 µg/mL | 0.004 to 0.01 µg/mL (≈ 0.0116 to 0.029 µM) |  |  |  |
| COc1ccc(CCC(=NO)c2c(O)cc(OC)cc2OC)cc1 [1-(2-Hydroxy--4,6-dimethoxyphenyl)-3-(4-methoxyphenyl)-1-propanon-oxim] | > 10 µg/mL |  |  |  |  |
| CCOc1cc(O)c(C(=S)CCc2ccc(OC)cc2)c(OC)c1 [1-(4-Ethoxy-2-hydroxy-6-methoxyphenyl)-3-(4-methoxyphenyl)-1-propanthion] |  | 0.002 µg/mL (≈ 0.00577 µM) | 2.7 µg/mL | besonders starke antivirale Aktivität |  |
| COc1ccc(CCC(=O)c2c(O)cc(SC)cc2OC)cc1 [1-[2-Hydroxy-6-methoxy-4-(methylthio)-phenyl]-3-(4-methoxyphenyl)-1-propanon] | 1 µg/mL | 0.1 µg/mL (≈ 0.301 µM) |  |  |  |
| CCOc1cc(OC)c(C(=O)NCc2ccc(OC)cc2)c(OP(=O)(O)O)c1 [2--[(p-Anisylamino)carbonyl]-5-ethoxy-3-methoxyphenyl-dihydrogenphosphat] | > 8 µg/mL |  |  | besonders starke antivirale Aktivität | 0.01 to 0.03 µg/mL (≈ 0.0243 to 0.0729 µM) |
| COc1cc(O)c(C(=O)NCc2cccs2)c(OC)c1 [2-Hydroxy-4,6-dimethoxy-N-(2--thenyl)benzamid] | 8 µg/mL | 0.03 µg/mL (≈ 0.102 µM) |  |  |  |
| COc1cc(O)c(C(=O)NCc2ccc[nH]2)c(OC)c1 [2-Hydroxy-4,6-dimethoxy-N-(2-pyrrolylmethyl)benzamid] | > 8 µg/mL | 2.7 µg/mL (≈ 9.77 µM) |  |  |  |
| COc1ccc(NC(=O)c2c(O)cc(OC)cc2OC)cc1 [2-Hydroxy-4,6-dimethoxy-N-(4--methoxyphenyl)benzamid] | > 10 µg/mL | 0.03 to 0.1 µg/mL (≈ 0.0989 to 0.33 µM) |  |  |  |
| COc1cc(O)c(C(=O)NCc2ccc3c(c2)OCO3)c(OC)c1 [2-Hydroxy-4,6-dimethoxy-N-(m,p--methylenedioxybenzyl)benzamid] | > 8 µg/mL | 0.003 to 0.01 µg/mL (≈ 0.00905 to 0.0302 µM) |  |  |  |
| COc1cccc(CNC(=O)c2c(O)cc(OC)cc2OC)c1 [2-Hydroxy-4,6-dimethoxy-N-(m--methoxybenzyl)benzamid] | > 8 µg/mL | 0.002 µg/mL (≈ 0.0063 µM) |  |  |  |

| SMILES | MCC at 48 h [1, 2] | IC50 (Rhinovirus HGP; [3]) | MCC at 48 h [1] | antivirale Aktivität (Rhinovirus HGP) | IC50 (Rhinovirus HGP) |
| --- | --- | --- | --- | --- | --- |
| COc1cc(O)c(C(=O)NCc2ccc(C)cc2)c(OC)c1 [2-Hydroxy-4,6-dimethoxy-N-(p--methylbenzyl)benzamid] | 8 µg/mL | 0.01 to 0.03 µg/mL (≈ 0.0332 to 0.0996 µM) |  |  |  |
| COc1ccc(CNC(=O)c2c(O)cc(OC)cc2OC)cc1 [2-Hydroxy-4,6-dimethoxy-N-(p-methoxybenzyl)benzamid] | 8 µg/mL | 0.002 µg/mL (≈ 0.0063 µM) |  |  |  |
| COc1cc(O)c(C(=O)NCc2ccc(OC)c(OC)c2)c(OC)c1 [2-Hydroxy-4,6-dimethoxy-N--(m,p-dimethoxybenzyl)benzamid] | 8 µg/mL | 0.3 µg/mL (≈ 0.864 µM) |  |  |  |
| COc1cc(O)c(C(=O)NCC2CCCS2)c(OC)c1 (stereo not drawn) [2-Hydroxy-4,6-dimethoxy-N--(tetrahydro-2-thenyl)benzamid] | 8 µg/mL | 0.004 to 0.01 µg/mL (≈ 0.0135 to 0.0336 µM) |  |  |  |
| CNC(=O)c1c(O)cc(OC)cc1OC [2-Hydroxy-4,6-dimethoxy-N--methylbenzamid] | > 8 µg/mL | 0.9 µg/mL (≈ 4.26 µM) |  |  |  |
| COc1cc(O)c(C(=O)NCc2ccncc2)c(OC)c1 [2-Hydroxy-4,6-dimethoxy-N-[(4-pyridyl)methyl]benzamid] | 8 µg/mL | 0.9 µg/mL (≈ 3.12 µM) |  |  |  |
| COc1cc(O)c(C(=O)NCc2ccc(SC)cc2)c(OC)c1 [2-Hydroxy-4,6-dimethoxy-N-[p--(methylthio)benzyl]benzamid] | > 8 µg/mL | 0.002 µg/mL (≈ 0.006 µM) |  | besonders starke antivirale Aktivität |  |
| COc1ccc(CNC(=O)c2c(O)cc(OCC=C(C)C)cc2OC)cc1 [2-Hydroxy-6-methoxy-4-(3-methyl-2-butenyloxy)-N-(p-methoxybenzyl)benzamid] | > 8 µg/mL | 0.001 to 0.002 µg/mL (≈ 0.00269 to 0.00538 µM) |  | besonders starke antivirale Aktivität |  |
| CCCOc1cc(O)c(C(=O)NCc2ccc(OC)cc2)c(OC)c1 [2-Hydroxy-6-methoxy-4-propoxy-N-(p-methoxybenzyl)benzamid] | > 20 µg/mL | 0.001 to 0.003 µg/mL (≈ 0.0029 to 0.00869 µM) |  | besonders starke antivirale Aktivität |  |
| COc1cc(O)c(C(=O)NCc2ccc(OC)c(O)c2)c(OC)c1 [2-Hydroxy-N-(m-hydroxy-p-methoxy-benzyl)-4,6-dimethoxybenzamid] | 2.7 µg/mL | 0.1 to 0.3 µg/mL (≈ 0.3 to 0.9 µM) |  |  |  |
| COc1cc(O)c(C(=O)NCc2ccc(O)cc2)c(OC)c1 [2-Hydroxy-N-(p-hydroxybenzyl)--4,6-dimethoxybenzamid] | > 8 µg/mL | 0.3 µg/mL (≈ 0.989 µM) |  |  |  |
| COc1ccc(CNC(=O)c2c(OC)cc(OC)cc2O[C@@H]2O[C@H](CO)[C@@H](O)[C@H](O)[C@H]2O)cc1 [2-[(p-Anisyl-amino)carbonyl]-3,5-dimethoxyphenyl-ß-D-glucopyranosid] | > 10 µg/mL | 2.7 µg/mL (≈ 5.63 µM) |  |  |  |
| CCOc1cc(OC)c(C(=O)NCc2ccc(OC)cc2)c(OC(C)=O)c1 [2-[(p-Anisyl-amino)carbonyl]-5-ethoxy-3-methoxypheny]acetat] | > 8 µg/mL | 0.3 µg/mL (≈ 0.803 µM) |  |  |  |
| COc1ccc(CNC(=O)c2c(OC)cc(OC)cc2OC(=O)c2ccccc2)cc1 [2-[(p-Anisylamino)carbonyl]-3,5-dimethoxyphenyl-benzoat] | > 8 µg/mL | 0.03 µg/mL (≈ 0.0712 µM) |  |  |  |
| COc1ccc(CNC(=O)c2c(OC)cc(OC)cc2OP(=O)(O)O)cc1 [2-[(p-Anisylamino)carbonyl]-3,5-dimethoxyphenyl-dihydrogenphosphat] | > 8 µg/mL |  |  |  | 0.006 to 0.01 µg/mL (≈ 0.0151 to 0.0252 µM) |
| CCCCCCCCCCCCCCCCCC(=O)Oc1cc(OC)cc(OC)c1C(=O)NCc1ccc(OC)cc1 [2-[(p-Anisylamino)carbonyl]-3,5-dimethoxyphenyl-octadecanoat] | > 8 µg/mL | 0.3 to 0.9 µg/mL (≈ 0.514 to 1.54 µM) |  |  |  |
| COc1ccc(CNC(=O)c2c(OC)cc(OC)cc2O[C@@H]2O[C@H](COC(C)=O)[C@@H](OC(C)=O)[C@H](OC(C)=O)[C@H]2OC(C)=O)cc1 [2-[(p-Anisylamino)carbonyl]-3,5-dimethoxyphenyl-tetra-O-acetyl-ß-D-glucopyranosid] | > 10 µg/mL | 2.7 µg/mL (≈ 4.17 µM) |  |  |  |
| C=CCOc1ccc(CNC(=O)c2c(OC)cc(OC)cc2OC(=O)c2ccccc2)cc1 [2-{[[p-(Allyloxy)benzyl]amino]carbonyl}-3,5-dimethoxyphenyl-benzoat] | 2.7 µg/mL | 0.002 µg/mL (≈ 0.00447 µM) |  | besonders starke antivirale Aktivität |  |
| C=CCOc1ccc(CNC(=O)c2c(OC)cc(OC)cc2OC(=O)CCCCCCCCCCCCCCCCC)cc1 [2-{[[p-(Allyloxy)benzyl]amino]carbonyl}-3,5-dimethoxyphenyl-octadecanoat] | > 8 µg/mL | 0.3 µg/mL (≈ 0.492 µM) |  |  |  |
